Patent publication US9750759B2, “Antitumoral compounds” (priority 2008, dated 2017)
Like-named read-outs stand apart in the source and are kept apart here.

How the values were obtained:
Assay in all cases: cells
Type in all cases: cell-based
HT29 = settings: Homo sapiens; for GI50: concentration that produces 50% growth inhibition; for IC (total growth inhibition): total growth inhibition (cytostatic effect), read-out: TGI
From the text: (§1) The aim of this assay is to evaluate the in vitro cytostatic (ability to delay or arrest tumor cell growth) or cytotoxic (ability to kill tumor cells) activity of the samples being tested.
(§2) A colorimetric type of assay, using sulforhodamine B (SRB) reaction has been adapted for a quantitative measurement of cell growth and viability (following the technique described by Skehan P et al. J. Natl. Cancer Inst. 1990, 82, 1107-1112).
(§3) This form of assay employs SBS-standard 96-well cell culture microplates (Faircloth et al. Methods in cell science, 1988, 11(4), 201-205; Mosmann et al, Journal of Immunological. Methods, 1983, 65(1-2), 55-63). All the cell lines used in this study, derived from different types of human cancer, were obtained from the American Type Culture Collection (ATCC).
(§4) Cells were maintained in Dulbecco's Modified Eagle Medium (DMEM) supplemented with 10% Fetal Bovine Serum (FBS), 2 mM L-glutamine, 100 U/mL penicillin and 100 U/mL streptomycin at 37° C., 5% CO2 and 98% humidity. For the experiments, cells were harvested from subconfluent cultures using trypsinization and resuspended in fresh medium before counting and plating.
(§5) Cells were seeded in 96 well microtiter plates at 5×10^3 cells per well in aliquots of 150 μL, and allowed to attach to the plate surface for 18 hours in drug free medium. One control (untreated) plate of each cell line was fixed (as described below) and used for time zero reference value. Afterwards, test samples were added to the cultures in ten serial dilutions, in aliquots of 50 μL, ranging from 10 to 0.00262 μg/mL. After 48 hours exposure, the antitumor effect was estimated by the SRB method: Briefly, cells were washed twice with PBS, fixed for 15 min in 1% glutaraldehyde solution, rinsed twice in PBS, and stained in 0.4% SRB solution for 30 min at room temperature. Cells were then rinsed several times with 1% acetic acid solution and air-dried. SRB was then extracted in 10 mM trizma base solution and the absorbance measured in an automated spectrophotometric plate reader at 490 nm. Cell survival was expressed as percentage of control cell growth. The final effect of the sample being tested was estimated by applying the NCI algorithm (Boyd M R and Paull K D. Drug Dev. Res. 1995, 34, 91-104).
(§6) Using the mean±SD of triplicate cultures, a dose-response curve was automatically generated using nonlinear regression analysis. Three reference parameters were calculated (NCI algorithm) by automatic interpolation: GI50=concentration that produces 50% growth inhibition; TGI=total growth inhibition (cytostatic effect) and LC50=concentration that produces 50% net cell killing (cytotoxic effect).

A549 = settings: Homo sapiens; for GI50: concentration that produces 50% growth inhibition; for IC (total growth inhibition): read-out: TGI
From the text: as §1, §2, §3, §4, §5, §6

MDA-MB-231 = settings: Homo sapiens; for GI50: concentration that produces 50% growth inhibition; for IC (total growth inhibition): read-out: TGI
From the text: as §1, §2, §3, §4, §5, §6

[1] = HT-29, HT29, 48 hours exposure, concentration that produces 50% net cell killing, read-out: LC50 (the source's name)
[2] = A549, 48 hours exposure, concentration that produces 50% net cell killing, read-out: LC50 (the source's name)
[3] = A549, 48 hours exposure, total growth inhibition (cytostatic effect)
[4] = MDA-MB-231, 48 hours exposure, concentration that produces 50% net cell killing, read-out: LC50 (the source's name)
[5] = MDA-MB-231, 48 hours exposure, total growth inhibition (cytostatic effect)
[6] = MDA-MB-231, 48 h, read-out: LC50

Structure (SMILES)	GI50 (HT29; HT-29, HT29, 48 hours exposure) [nM]	CC50 (HT29; [1]) [µM]	IC (total growth inhibition) (HT29; HT-29, HT29, 48 hours exposure) [µM]	GI50 (A549; A549, 48 hours exposure) [nM]	CC50 (A549; [2]) [µM]	IC (total growth inhibition) (A549; [3]) [µM]	GI50 (MDA-MB-231; MDA-MB-231, 48 hours exposure) [nM]	CC50 (MDA-MB-231; [4]) [µM]	IC (total growth inhibition) (MDA-MB-231; [5]) [µM]	CC50 (HT29; HT-29, 48 h, read-out: LC50) [µM]	CC50 (A549; A549, 48 h, read-out: LC50) [µM]	CC50 (MDA-MB-231; [6]) [µM]	IC (total growth inhibition) (MDA-MB-231; MDA-MB-231, 48 h) [µM]	IC (total growth inhibition) (A549; A549, 48 h) [µM]
COC1=CC[C@@H]([C@@H](C)/C=C(C)/C=C\C#CC(=O)N[C@H](C(=O)N/C=C\C[C@H](C/C=C(\C)Cl)O[Si](C)(C)C(C)(C)C)C(C)(C)C)OC1=O [Compound 64a]	2220	> 14.8	4.29	4440	> 14.8	> 14.8	4890	> 14.8	> 14.8	–	–	–	–	–
COC1=CC[C@@H]([C@@H](C)/C=C(C)/C=C\C#CC(=O)N[C@H](C(=O)N/C=C\C[C@H](C/C=C(\C)Cl)O[Si](C)(C)C(C)(C)C)C(C)C)OC1=O [Compound 64b]	423	2.42	0.65	680	> 15.1	3.33	1330	> 15.1	> 15.1	–	–	–	–	–
COC1=CC[C@@H]([C@@H](C)/C=C(C)/C=C\C#CC(=O)N[C@H](C(=O)N/C=C\C[C@@H](O)C/C=C(\C)Cl)C(C)(C)C)OC1=O [Compound 65a]	1780	–	3.03	3390	–	6.24	3560	–	9.98	7.31	11.8	> 17.8	–	–
COC1=CC[C@@H]([C@@H](C)/C=C(C)/C=C\C#CC(=O)N[C@H](C(=O)N/C=C\C[C@@H](O)C/C=C(\C)Cl)C(C)C)OC1=O [Compound 65b]	183	–	0.494	311	–	1.81	548	–	–	> 18.3	> 18.3	> 18.3	> 18.3	–
COC1=CC[C@@H]([C@@H](C)/C=C(C)/C=C\C#CC(=O)N[C@H](C(=O)N/C=C\C[C@H](C/C=C(\C)Cl)OC(N)=O)C(C)(C)C)OC1=O [Compound 66a]	12.1	–	0.0513	33.1	–	0.397	44.7	–	0.778	2.81	> 16.6	> 16.6	–	–
COC1=CC[C@@H]([C@@H](C)/C=C(C)/C=C\C#CC(=O)N[C@H](C(=O)N/C=C\C[C@H](C/C=C(\C)Cl)OC(N)=O)C(C)C)OC1=O [Compound 66b]	22	–	0.0288	25.4	–	0.0813	27.1	–	0.373	0.0424	> 16.9	4.58	–	–
COC1=CC[C@@H]([C@@H](C)/C=C\C=C/C(=O)N[C@H](C(=O)N/C=C\C[C@H](C/C=C(\C)Cl)O[Si](C)(C)C(C)(C)C)C(C)(C)C)OC1=O [Compound 67]	1880	3.14	2.35	1570	4.86	2.82	910	1.21	1.04	–	–	–	–	–
COC1=CC[C@@H]([C@@H](C)/C=C\C=C/C(=O)N[C@H](C(=O)N/C=C\C[C@@H](O)C/C=C(\C)Cl)C(C)(C)C)OC1=O [Compound 68]	459	–	0.707	1470	–	4.21	784	–	1.49	> 19.1	> 19.1	6.5	–	–
COC1=CC[C@@H]([C@@H](C)/C=C\C=C/C(=O)N[C@H](C(=O)N/C=C\C[C@H](C/C=C(\C)Cl)OC(N)=O)C(C)(C)C)OC1=O [Compound 69]	173	–	0.424	230	–	–	336	–	1.63	> 17.7	> 17.7	8.13	–	> 17.7
CC#CC[C@@H](C/C=C\NC(=O)[C@@H](NC(=O)\C=C/C=C\C(C)=C\[C@H](C)[C@@H]1CC=C(OC)C(=O)O1)C(C)(C)C)O[Si](c1ccccc1)(c1ccccc1)C(C)(C)C [Compound 70]	1960	4.05	2.74	2090	3.27	2.61	1700	3.53	2.48	–	–	–	–	–
CC#CC[C@H](O)C/C=C\NC(=O)[C@@H](NC(=O)\C=C/C=C\C(C)=C\[C@H](C)[C@@H]1CC=C(OC)C(=O)O1)C(C)(C)C [Compound 71]	58.9	–	0.175	266	–	1.84	209	–	2.85	> 19	8.54	> 19	–	–
CC#CC[C@@H](C/C=C\NC(=O)[C@@H](NC(=O)\C=C/C=C\C(C)=C\[C@H](C)[C@@H]1CC=C(OC)C(=O)O1)C(C)(C)C)OC(N)=O [Compound 72]	0.0579	–	0.000125	0.176	–	0.00281	0.246	–	0.00193	> 0.176	> 0.176	> 0.176	–	–
COC1=CC[C@@H]([C@@H](C)/C=C(C)/C=C\C#CC(=O)NC(C(=O)N/C=C\C[C@H](C/C=C(\C)Cl)O[Si](c2ccccc2)(c2ccccc2)C(C)(C)C)C(C)(C)C)OC1=O (stereo partly drawn) [Compound 78]	> 12500	> 12.5	> 12.5	> 12500	> 12.5	> 12.5	> 12500	> 12.5	> 12.5	–	–	–	–	–
